From patent US20210087217A1, “NUCLEOTIDE HEMI-SULFATE SALT FOR THE TREATMENT OF HEPATITIS C VIRUS” (Atea Pharmaceuticals, Inc., priority 2017, published 2021)
“Also recorded” adds a separate entry of the source. Structures can show the parent of a compound that is named as a salt.

Experiments:
[1] = Solubility in biorelevant test medias (water, SGF, FaSSIF, FeSSIF)
[2] = Heart and liver tissue levels of active triphosphate 4 hours after oral Compound 2, dogs; format: in vivo, dog; conditions: 4 hours after oral dose of Compound 2
Method: High levels of the active TP were measured in the liver of all species tested.

[3] = Chemical stability of Compound 2 at 25 and 40° C. over 6 months; format: physicochemical
Method: The container closure system for the study was a combination medicinal valve bag with a pharmaceutical laminated film over the pouch and desiccant silica gel between the two layers. […] Bags were then stored at 25° C./60% RH (relative humidity) and 40° C./75% RH (relative humidity). Organic purity, water content, ^1HNMR, DSC and Raman were measured at Time 0, Month 1, Month 2, Month 3 and Month 6.
The sample was dissolved in acetonitrile-water (90:10) (v/v). The gradient method is shown below.
At 25° C., the percent of degradation product increased from 0.03% at Day 0 to 0.08% after 6 months. At 40° C., the percent of degradation product increased from 0.03% to 0.39%. Over the course of 6 months, the percent of water increased approximately 0.6% at 25° C. and increased approximately 0.7% at 40° C.

HCV RNA (GT1-HCV) = experiment: Plasma HCV RNA reduction in GT1-HCV infected patients (Part B); format: in vivo
Method: Plasma HCV RNA determinations were performed through the use of a validated commercial assay. Baseline was defined as the mean of Day −1 and Day 1 (pre-dose). […] The mean maximum HCV RNA reduction 24 hours post-dose following a single 300 mg dose was 1.7 log10 IU/mL and this compares to a-2 log10 IU/mL reduction after 1 day of 400 mg of sofosbuvir monotherapy in GT1a HCV-infected subjects. The mean maximum HCV RNA reduction 24 hours post-dose following a single 100 mg dose was 0.8 log10 IU/mL. The mean maximum HCV RNA reduction was 2.2 log10 IU/mL following a single 400 mg dose.

[4] = Ambient stability (25 ± 2° C./60 ± 5% RH) of Compound 2; format: physicochemical
Method: Three conditions were tested: accelerated stability (40 2° C./75±5% RH) over a 6-month time period, ambient stability (25±2° C./60±5% RH) over a 9-month period, and stability under refrigerator conditions (5 3° C.) over a 9-month time period. The results for accelerated stability, ambient stability, and refrigerator conditions are shown in Table 23, Table 24, and Table 25, respectively.
After 9 months, the percentage of water in the sample was only 0.20% and the total related substance 1 impurities was only 0.02%.

[5] = 25° C./60% RH, over nine months
[6] = 25 ± 2° C./60 ± 5% RH, 1st month
[7] = 25 ± 2° C./60 ± 5% RH, 3rd month
[8] = 25 ± 2° C./60 ± 5% RH, 6th month
[9] = 25 ± 2° C./60 ± 5% RH, 9th month

In the case of `CNc1nc(N)nc2c1ncn2[C@@H]1O[C@H](CO[P@@](=O)(N[C@@H](C)C(=O)OC(C)C)Oc2ccccc2)[C@@H](O)[C@@]1(C)F` [Compound 2, hemi-sulfate salt of isopropyl((S)-(((2R,3R,4R,5R)-5-(2-amino-6-(methylamino)-9H-purin-9-yl)-4-fluoro-3-hydroxy-4-methyltetrahydrofuran-2-yl)methoxy)(phenoxy)phosphoryl)-L-alaninate], the “Appearance in solubility test” value ([1]; FaSSIF) was “Turbid”, the Solubility descriptive term ([1]; FaSSIF) was “Slightly” and the “Appearance in solubility test” value ([1]; FeSSIF) was “Turbid”. The Solubility descriptive term ([1]; FeSSIF) was “Slightly”, the “Appearance in solubility test” value ([1]; SGF) was “Turbid” and the Solubility descriptive term ([1]; SGF) was “Soluble”. For the same molecule, the “Appearance in solubility test” value ([1]; Water) was “Turbid”, the Solubility descriptive term ([1]; Water) was “Soluble” and the “Times more soluble in water compared to Compound 1” value ([1]; Water) was “up to 43 times”. The “Times more soluble than Compound 1 under SGF conditions” value ([1]; simulated gastric fluid (SGF)) was “over 6 times”, the “Active TP (metabolite 1-6) level in heart” value [2] was “Relatively low levels” and the “Active TP (metabolite 1-6) level in liver” value [2] was “High levels”. For the same molecule, the “Increase of the percent of water over 6 months” value ([3]; 25° C.) was “approximately 0.6%”, the “Maximum Impurity Percent” value ([3]; 25° C./60% RH, Day 0) was 0.12% and the “Percent Purity” value ([3]; 25° C./60% RH, Day 0) was 99.82%. For the same molecule, the “Percent Water” value ([3]; 25° C./60% RH, Day 0) was 1.2%, the “1HNMR compared with Day 0” value ([3]; 25° C./60% RH, Month 1) was “The same as” and the “DSC compared with Day 0” value ([3]; 25° C./60% RH, Month 1) was “The same as”. For the same molecule, the “Maximum Impurity Percent” value ([3]; 25° C./60% RH, Month 1) was 0.12%, the “Percent Purity” value ([3]; 25° C./60% RH, Month 1) was 99.77% and the “Percent Water” value ([3]; 25° C./60% RH, Month 1) was 1.9%. For the same molecule, the “Raman compared with Day 0” value ([3]; 25° C./60% RH, Month 1) was “The same as”, the “1HNMR compared with Day 0” value ([3]; 25° C./60% RH, Month 2) was “The same as” and the “DSC compared with Day 0” value ([3]; 25° C./60% RH, Month 2) was “The same as”. The “Maximum Impurity Percent” value ([3]; 25° C./60% RH, Month 2) was 0.12%, the “Percent Purity” value ([3]; 25° C./60% RH, Month 2) was 99.75% and the “Percent Water” value ([3]; 25° C./60% RH, Month 2) was 1.8%. For the same molecule, the “Raman compared with Day 0” value ([3]; 25° C./60% RH, Month 2) was “The same as”, the “1HNMR compared with Day 0” value ([3]; 25° C./60% RH, Month 3) was “The same as” and the “DSC compared with Day 0” value ([3]; 25° C./60% RH, Month 3) was “The same as”. The “Maximum Impurity Percent” value ([3]; 25° C./60% RH, Month 3) was 0.12%, the “Percent Purity” value ([3]; 25° C./60% RH, Month 3) was 99.75% and the “Percent Water” value ([3]; 25° C./60% RH, Month 3) was 1.8%. The “Raman compared with Day 0” value ([3]; 25° C./60% RH, Month 3) was “The same as”, the “1HNMR compared with Day 0” value ([3]; 25° C./60% RH, Month 6) was “The same as” and the “DSC compared with Day 0” value ([3]; 25° C./60% RH, Month 6) was “The same as”. For the same molecule, the “Maximum Impurity Percent” value ([3]; 25° C./60% RH, Month 6) was 0.13%, the “Percent Purity” value ([3]; 25° C./60% RH, Month 6) was 99.74% and the “Percent Water” value ([3]; 25° C./60% RH, Month 6) was 1.8%. For the same molecule, the “Raman compared with Day 0” value ([3]; 25° C./60% RH, Month 6) was “The same as”, the “Increase of the percent of water over 6 months” value ([3]; 40° C.) was “approximately 0.7%” and the “Maximum Impurity Percent” value ([3]; 40° C./75% RH, Day 0) was 0.12%. The “Percent Purity” value ([3]; 40° C./75% RH, Day 0) was 99.82%, the “Percent Water” value ([3]; 40° C./75% RH, Day 0) was 1.2% and the “1HNMR compared with Day 0” value ([3]; 40° C./75% RH, Month 1) was “The same as”. The “DSC compared with Day 0” value ([3]; 40° C./75% RH, Month 1) was “The same as”, the “Maximum Impurity Percent” value ([3]; 40° C./75% RH, Month 1) was 0.12% and the “Percent Purity” value ([3]; 40° C./75% RH, Month 1) was 99.71%. For the same molecule, the “Percent Water” value ([3]; 40° C./75% RH, Month 1) was 2.0%, the “Raman compared with Day 0” value ([3]; 40° C./75% RH, Month 1) was “The same as” and the “1HNMR compared with Day 0” value ([3]; 40° C./75% RH, Month 2) was “The same as”. For the same molecule, the “DSC compared with Day 0” value ([3]; 40° C./75% RH, Month 2) was “The same as”, the “Maximum Impurity Percent” value ([3]; 40° C./75% RH, Month 2) was 0.12% and the “Percent Purity” value ([3]; 40° C./75% RH, Month 2) was 99.63%. For the same molecule, the “Percent Water” value ([3]; 40° C./75% RH, Month 2) was 1.9%, the “Raman compared with Day 0” value ([3]; 40° C./75% RH, Month 2) was “The same as” and the “1HNMR compared with Day 0” value ([3]; 40° C./75% RH, Month 3) was “The same as”. The “DSC compared with Day 0” value ([3]; 40° C./75% RH, Month 3) was “The same as”, the “Maximum Impurity Percent” value ([3]; 40° C./75% RH, Month 3) was 0.12% and the “Percent Purity” value ([3]; 40° C./75% RH, Month 3) was 99.58%. For the same molecule, the “Percent Water” value ([3]; 40° C./75% RH, Month 3) was 1.9%, the “Raman compared with Day 0” value ([3]; 40° C./75% RH, Month 3) was “The same as” and the “1HNMR compared with Day 0” value ([3]; 40° C./75% RH, Month 6) was “The same as”. For the same molecule, the “DSC compared with Day 0” value ([3]; 40° C./75% RH, Month 6) was “The same as”, the “Maximum Impurity Percent” value ([3]; 40° C./75% RH, Month 6) was 0.14% and the “Percent Purity” value ([3]; 40° C./75% RH, Month 6) was 99.30%. For the same molecule, the “Percent Water” value ([3]; 40° C./75% RH, Month 6) was 1.9%, the “Raman compared with Day 0” value ([3]; 40° C./75% RH, Month 6) was “The same as” and the “Rate of degradation” value ([3]; stored for 6 months at 25 and 40° C.) was “minimal”. The “Mean maximum HCV RNA reduction” value (HCV RNA (GT1-HCV); 24 hours post-dose, single 100 mg dose) was 0.8 log10 IU/mL, the “Mean maximum HCV RNA reduction” value (HCV RNA (GT1-HCV); 24 hours post-dose, single 300 mg dose) was 1.7 log10 IU/mL and the “Mean maximum HCV RNA reduction” value (HCV RNA (GT1-HCV); single 400 mg dose) was 2.2 log10 IU/mL. For the same molecule, the Percentage of water ([4]; 25° C./60% RH, after 9 months) was 0.20%, the “Total related substance 1 impurities” value ([4]; 25° C./60% RH, after 9 months) was 0.02% and the “Related substance 2 and any isomers” value ([4]; 25° C./60% RH, nine months) was “not detected”. The Appearance [4, 5] was “white solid”, the IR [4, 5] was “corresponded with the reference sample” and the Appearance ([4]; 25 ± 2° C./60 ± 5% RH, 0 month) was “White”. The Assay ([4]; 25 ± 2° C./60 ± 5% RH, 0 month) was 98.8%, the IR ([4]; 25 ± 2° C./60 ± 5% RH, 0 month) was “correspond” and the “Related Substance 1 Any other single impurity” value ([4]; 25 ± 2° C./60 ± 5% RH, 0 month) was 0.01%. The “Related Substance 1 Total Impurities” value ([4]; 25 ± 2° C./60 ± 5% RH, 0 month) was 0.01%, the Water ([4]; 25 ± 2° C./60 ± 5% RH, 0 month) was 0.45% and the Appearance [4, 6] was “White”. For the same molecule, the Assay [4, 6] was 101.1%, the “Related Substance 1 Any other single impurity” value [4, 6] was 0.01% and the “Related Substance 1 Total Impurities” value [4, 6] was 0.02%. For the same molecule, the Water [4, 6] was 0.19%, the Appearance [4, 7] was “White” and the Assay [4, 7] was 99.6%. For the same molecule, the IR [4, 7] was “correspond”, the “Related Substance 1 Any other single impurity” value [4, 7] was 0.03% and the “Related Substance 1 Impurity B” value [4, 7] was 0.03%. For the same molecule, the “Related Substance 1 Impurity F” value [4, 7] was 0.02%, the “Related Substance 1 Total Impurities” value [4, 7] was 0.11% and the Water [4, 7] was 0.29%. The Appearance [4, 8] was “White solid”, the Assay [4, 8] was 99.7% and the IR [4, 8] was “correspond”. For the same molecule, the “Related Substance 1 Any other single impurity” value [4, 8] was 0.02%, the “Related Substance 1 Impurity F” value [4, 8] was 0.01% and the “Related Substance 1 Total Impurities” value [4, 8] was 0.05%. The Water [4, 8] was 0.46%, the Appearance [4, 9] was “Off-white” and the Assay [4, 9] was 100.9%. The IR [4, 9] was “correspond”, the “Related Substance 1 Any other single impurity” value [4, 9] was 0.02% and the “Related Substance 1 Total Impurities” value [4, 9] was 0.02%. The Water [4, 9] was 0.20% and the “Stability” value ([4]; ambient conditions (25° C./60% RH), 9 months) was “very stable; also recorded: stable”.
